From patent US20040029196A1, “Epithelial cell lines from gene knockout mice and methods of use thereof” (priority 2001, published 2004)
Marks after values point to notes of the source that are not given here.

Tests used:
Apc [+/−] 1638NCOL cells [1] = test: Cytostatic growth arrest (cell population doubling); assay type: cell-based, mouse; settings: for No. of population doublings: mean ± SD, n = 3
Description: (§1) Differential susceptibility of C57COL (wild type Ape [+/+]), the control cell line, and 1638NCOL (Apc [+/−]) to growth inhibition by mechanistically distinct prototype chemopreventive test compounds was evaluated in a conventional cell survival assay, while the preventive efficacy of the test compounds was evaluated using optimized quantitative flow cytometry-based cell cycle analysis. Optimization of flow cytometry based cell cycle analysis is published (7, 8, 10, 11) and is needed in view of batch-to-batch variations in commercially available fluorescein isothiocyanate-conjugated antibodies.
(§2) Selective susceptibility of Ape [+/−] 1638NCOL cells to a prototype chemopreventive agent sulindac (SUL) was examined by comparing its effect on Ape [+/+] C57COL and Ape [+/−] 1638NCOL cells. The cytostatic growth arrest response, evidenced by a decrease in cell population doubling, was about 2-3 fold higher in Ape [+/−] cells as compared to that of Ape [+/+] cells (Table 3).
The dose response and efficacy studies involved treatment of cell cultures with five log μM concentrations of each compound (0.01, 0.1, 1.0, 10.0 and 100.0 μM). […] The cytostatic effect of treatment with high doses (100 μM) was associated with down regulated cell population doubling, altered aneuploid G0/G1: S+G2/M ratio, and decreased number of anchorage independent colonies (Table 4).
(§3) The cell lines were characterized for expression of epithelium specific proteins (cytokeratins), Apc gene product (full length, as opposed to truncated forms which are differentially reactive to carboxyl and amino terminal Apc antibodies), and cytodifferentiation (MUC1, acid mucopolysaccharide, alkaline phosphatase) using standard assays for immunocytochemical analysis. The growth kinetics were determined based on the time-dependent increase in the number of viable cells relative to the initial seeding density. The cell cycle progression and anchorage-independent growth were determined using fluorescence assisted flow cytometry and colony forming assays, respectively, as previously described (4, 7-11). The expression profile of specific gene products (proteins) involved in the regulation of cell cycle progression, apoptosis, and differentiation was also quantified using recently optimized cellular epifluorescence assays (10, 11).

Apc [+/−] 1638NCOL cells [2] = test: Flow cytometry-based aneuploid cell cycle progression analysis; parameters: species or system mouse; settings: for G0/G1:S + G2/M ratio (aneuploid cell cycle progression): mean ± SD, n = 3
Description: Aneuploidy: Fluorescence assisted cell sorting and flow cytometry of cells stained with DNA binding fluorescent dyes. Diploid and aneuploid cells accumulate as distinct peaks on the DNA histograms obtained from flow cytometric analysis.
as §1, §3

Apc [+/−] 1638NCOL cells [3] = test: Dose response in conventional cell survival assay (growth arrest, toxicity); assay type: cell-based, mouse; parameters: key to Toxicity: +: Toxicity, surviving cell population lower than initial seeding density; settings: for No effect: 0.01 μM
Description: as §1
The dose response and efficacy studies involved treatment of cell cultures with five log μM concentrations of each compound (0.01, 0.1, 1.0, 10.0 and 100.0 μM).

Apc [+/−] 1638NCOL cells [4] = test: Anchorage-independent growth (soft agar colony formation); assay type: cell-based, mouse; settings: 100 μM
Description: Anchorage-independent growth: The ‘soft’ agar growth assay monitors the ability of cells to form non adherant colonies. Single cells suspended in 0.33% agar are overlaid on a basement matrix. These cultures are maintained for about 10-14 days and resulting colonies are counted.
as §3

C57COL (Apc [+/+]) cells = test: Cytostatic growth arrest (cell population doubling), control cell line; assay type: cell-based, mouse
Description: as §1, §2, §3

Row | Compound | % Change in no. of population doublings versus EtOH control (Apc [+/−] 1638NCOL cells [1]; 1 μM) | No. of population doublings (Apc [+/−] 1638NCOL cells [1]; 1 μM) | % Change in no. of population doublings versus EtOH control (Apc [+/−] 1638NCOL cells [1]; 10 μM) [%] | No. of population doublings (Apc [+/−] 1638NCOL cells [1]; 10 μM) | G0/G1:S + G2/M ratio (aneuploid cell cycle progression) (Apc [+/−] 1638NCOL cells [2]; 1 μM) | Cell cycle phase (Apc [+/−] 1638NCOL cells [2]; 10 μM) | G0/G1:S + G2/M ratio (aneuploid cell cycle progression) (Apc [+/−] 1638NCOL cells [2]; 10 μM) | No effect (Apc [+/−] 1638NCOL cells [3]) | Growth arrest (%) (Apc [+/−] 1638NCOL cells [3]; 1 μM (Table 8)) | Growth arrest (%) (Apc [+/−] 1638NCOL cells [3]; 0.1-10 μM) | % Change in no. of population doublings versus EtOH control (Apc [+/−] 1638NCOL cells [1]; 100 μM) [%] | Cell Population Doubling (Apc [+/−] 1638NCOL cells [1]; 100 μM) | No. of population doublings (Apc [+/−] 1638NCOL cells [1]; 100 μM) | Cell cycle phase (Apc [+/−] 1638NCOL cells [2]; 1 μM) | Aneuploid G0/G1:S + G2/M ratio (Apc [+/−] 1638NCOL cells [2]; 100 μM) | Cell cycle phase (Apc [+/−] 1638NCOL cells [2]; 100 μM) | G0/G1:S + G2/M ratio (aneuploid cell cycle progression) (Apc [+/−] 1638NCOL cells [2]; 100 μM) | Growth arrest (%) (Apc [+/−] 1638NCOL cells [3]; 100 μM) | Growth arrest (%) (Apc [+/−] 1638NCOL cells [3]; 100 μM (Table 8)) | Anchorage-independent colonies (Apc [+/−] 1638NCOL cells [4]) | further results
1 | NCCCNCCSP(=O)(O)O [AMF, Amifostine] | −17.2% | 8.2 ± 0.2 | −37.4 | 6.2 ± 0.3 | 9.6 ± 0.7 | G1 arrest | 10.9 ± 0.6^c | + (No effect <20% inhibition of surviving cell population) | 25 | 25-40% | – | – | – | – | – | – | – | – | – | – | Growth arrest (%) (Apc [+/−] 1638NCOL cells [3]; 10 μM (Table 8)): 40%; Toxicity (Apc [+/−] 1638NCOL cells [3]; 100 μM): +
2 | CC1=C(/C=C/C(C)=C\C=C\C(C)=C\C(=O)O)C(C)(C)CCC1 [Agent 9cisRA, 9cis retinoic acid] | −32.3% | 6.7 ± 0.2 | – | – | 13.8 ± 0.5^c | – | – | + (No effect <20% inhibition of surviving cell population) | 30 | 30% | −53.5 | 4.6 ± 0.1 | 4.6 ± 0.1^c | G1 arrest | 18.5 ± 0.2 | G1 arrest | 22.1 ± 0.6^c | 60 | 60 | 4.4 ± 1.2 | –
3 | Cc1c(-c2cnccn2)ssc1=S [OLT, Oltipraz] | +8.1% | 10.7 ± 0.2 | – | – | 1.0 ± 0.2^d | – | – | + (No effect <20% inhibition of surviving cell population) | 2 | 2% | −15.1 | 8.4 ± 0.4 | 8.4 ± 0.4 | S,G2M arrest | 7.2 ± 0.1 | S,G2M arrest | 1.2 ± 0.1^d | 25 | 25 | 15.8 ± 1.8 | –
4 | CC1=C(CC(=O)O)c2cc(F)ccc2/C1=C\c1ccc([S+](C)[O-])cc1 (stereo not shown) [SUL, Sulindac] | −23.2% | 7.6 ± 0.3 | – | – | 6.6 ± 0.4^d | – | – | + (No effect <20% inhibition of surviving cell population) | 30 | 30% | −61.6 | 3.8 ± 0.2 | 3.8 ± 0.2^c | – | 13.9 ± 0.5 | G1arrest | 13.9 ± 0.8^c | 70 | 70 | 0.5 ± 0.3 | Cell Population Doubling at Day 5 Post-Seeding (Apc [+/−] 1638NCOL cells [1]; 1638NCOL (Apc [+/−]), SUL 1 μM): 4.8 ± 0.6; Cell Population Doubling at Day 5 Post-Seeding (Apc [+/−] 1638NCOL cells [1]; 1638NCOL (Apc [+/−]), SUL 10 μM): 4.4 ± 0.4; Cell Population Doubling at Day 5 Post-Seeding (Apc [+/−] 1638NCOL cells [1]; 1638NCOL (Apc [+/−]), SUL 100 μM): 2.3 ± 0.3; Cytostatic growth arrest response (decrease in cell population doubling) in Apc [+/−] cells as compared to Apc [+/+] cells (Apc [+/−] 1638NCOL cells [1]; 1638NCOL versus C57COL): 2-3 fold; inhibition at 1 µM (Apc [+/−] 1638NCOL cells [1]; Mus musculus, 120 h, 1638NCOL (Apc [+/−]), SUL 1 μM, day 5): 34.2%; inhibition at 10 µM (Apc [+/−] 1638NCOL cells [1]; Mus musculus, 120 h, 1638NCOL (Apc [+/−]), SUL 10 μM, day 5): 39.7%; inhibition at 100 µM (Apc [+/−] 1638NCOL cells [1]; Mus musculus, 120 h, 1638NCOL (Apc [+/−]), SUL 100 μM, day 5): 68.5%; inhibition at 1 µM (C57COL (Apc [+/+]) cells; Mus musculus, 120 h, SUL 1 μM, day 5): 10.2%; inhibition at 10 µM (C57COL (Apc [+/+]) cells; Mus musculus, 120 h, SUL 10 μM, day 5): 15.4%; inhibition at 100 µM (C57COL (Apc [+/+]) cells; Mus musculus, 120 h, SUL 100 μM, day 5): 71.8%; Cell Population Doubling at Day 5 Post-Seeding (C57COL (Apc [+/+]) cells; SUL 1 μM): 3.5 ± 0.4; Cell Population Doubling at Day 5 Post-Seeding (C57COL (Apc [+/+]) cells; SUL 10 μM): 3.3 ± 0.7; Cell Population Doubling at Day 5 Post-Seeding (C57COL (Apc [+/+]) cells; SUL 100 μM): 1.1 ± 0.5
5 | CC/C(=C(\c1ccccc1)c1ccc(OCCN(C)C)cc1)c1ccccc1 [TAM, Tamoxifen] | −23.2% | 7.6 ± 0.4 | −28.3 | 7.1 ± 0.2 | 2.7 ± 0.9^d | S,G2M arrest | 1.8 ± 0.8^d | + (No effect <20% inhibition of surviving cell population) | 20 | 20-30% | – | – | – | S,G2M arrest | – | – | – | – | – | – | Growth arrest (%) (Apc [+/−] 1638NCOL cells [3]; 10 μM (Table 8)): 30%; Toxicity (Apc [+/−] 1638NCOL cells [3]; 100 μM): +
